Assay results published in US5063206A, “Compositions having use as treatment of neuropsychiatric deficits” (The United States of Americas as represented by the …, priority 1989, dated 1991).

System: volunteers who tested negative for HIV antibodies
Test: Clinical effects observed in volunteers who tested negative for HIV antibodies
Assay type: in vivo, human
Description: was given at dosage of 0.033 mg/kg/da to 0.133 mg/kg/da for seven days. As indicated in the Table, the unexpected effects observed in these volunteers who tested negative for HIV antibodies were the following: […]

For “D--Ala--Ser--Thr--Thr--Thr--Asn--Tyr--Thr--amide (ASTTTNYT; N-terminal D-residue; C-terminal amide; printed: Ala--Ser--Thr--Thr--Thr--Asn--Tyr--Thr--) [Peptide T]”, the “symptoms of substance abuse, childhood dyslexia and depression” value (0.033 mg/kg/da to 0.133 mg/kg/da for seven days) was “ameliorated”, the “scores on memory and attention components of standard neuropsychologic tests” value (0.033-0.133 mg/kg/da for seven days, effect remitted after Peptide T was discontinued) was “Incremental scores” and the “physical activity while on drug” value (all subjects, did not continue after drug discontinuance) was “increases in physical activity”. For the same substance, the “mood scores on depression scales” value (the two research volunteers who had prior histories of depression) was “Improved mood scores” and the “duration of the improved mood effect” value (the two research volunteers who had prior histories of depression, follow-up) was “maintained for one month of follow-up”.
